The source made the active and inactive calls. The calls are words filed in the database; no cut-off is given here.

One assay is filed under the species Danio rerio. The experiment in a line: Inhibition of AB zebrafish early embryo development assessed as delay in epiboly at 2.5 uM after 10 hrs post fertilization by inverted microscopic analysis. The format is functional, organism-based.
Turning to `C=CCOC(=O)N1c2cc3c(cc2[C@@H]2OC(C)(C)O[C@H]2[C@@H]1CCN(Cc1ccc(F)cc1)C(=O)[C@H](CC(C)C)NC(=O)OCC1c2ccccc2-c2ccccc21)OCO3`, the inhibition entry was “Active”.
Same read-out and setting: to `C=CCOC(=O)N1c2cc3c(cc2[C@@H]2OC(C)(C)O[C@H]2[C@@H]1CCO)OCO3` belongs “Active”; to `CC[C@H](C)[C@@H]1NC(=O)C[C@H]2[C@@H]3OC(C)(C)O[C@H]3c3cc4c(cc3N2C/C=C\COC1=O)OCO4`, “Active”.

The species named for another assay is Danio rerio. The experiment in a line: Antiangiogenic activity in transgenic zebrafish embryo expressing EGFP at 2.5 uM after 36 hrs post fertilization by inverted microscopic analysis. The format is functional, organism-based.
In the case of `C=CCOC(=O)N1c2cc3c(cc2[C@@H]2OC(C)(C)O[C@H]2[C@@H]1CCO)OCO3`, the inhibition result is “Active”.
For the compound `CC(C)C[C@@H]1NC(=O)C[C@H]2[C@@H]3OC(C)(C)O[C@H]3c3cc4c(cc3N2C/C=C\COC1=O)OCO4`, the inhibition result was “Active”.
Same read-out and setting: then `C=CCOC[C@H](Cc1ccccc1)NC(=O)C[C@@H]1Nc2cc3c(cc2[C@@H]2OC(C)(C)O[C@@H]12)OCO3`, with “Active”.
